According to EPA's ToxValDB 9.5:
Converted amounts (≈) assume the structure as drawn.

What was measured:
Apis mellifera = details: acute, duration: 48 hours, mortality
Danio rerio = details: acute; duration: 96 hours; mortality
Rattus norvegicus = details: for LD50: acute
Typhlodromus pyri = experiment: LR50; higher = less toxic; details: not reported; mortality
Bibionidae = details: chronic/long-term
Colinus virginianus = details: acute; oral; mortality
Cyprinodon variegatus = details: acute, duration: 96 hours
Daphnia magna = details: chronic/long-term; duration: 21 days
Oncorhynchus mykiss = details: for NOEC / LOAEL: chronic/long-term; for LOAEL: oral, feed
Tagia sp. = details: acute; duration: 14 days; mortality
Evynnis japonica = details: acute; duration: 12 hours; mortality
Metacarcinus magister = details: chronic/long-term; duration: 200 hours; mortality
Homo sapiens = details: clinical
Lepomis macrochirus = details: acute, duration: 96 hours
[1] = chronic/long-term; development
Bovidae = details: chronic; duration: 112 days; oral; diet; no effects
Canidae = details: oral, Dog Other
Coturnix coturnix = details: chronic; duration: 105 days; oral; diet; mortality
Gallus gallus = details: oral, diet
Ovis sp. = details: oral
Capra sp. = details: subchronic; duration: 90 days; oral; feed; growth
Oryctolagus sp. = details: subchronic; duration: 8 weeks; oral; gavage; M; New Zealand; clinical chemistry
Sus scrofa = details: repeat dose other; Not specified; organ weight
[2] = reproduction developmental, no effects
[3] = short-term, oral, feed, mortality
[4] = acute, duration: 96 hours, mortality

## CC(C)[C@@H](C)[C@@H](O)[C@H](O)[C@@H](C)[C@H]1CC[C@H]2[C@@H]3COC(=O)[C@H]4C[C@H](O)[C@H](O)C[C@]4(C)[C@H]3CC[C@]12C
Apis mellifera; dermal
  LD50: > 10 µg/piece
Apis mellifera; oral, unspecified
  LD50: > 92.2 µg/piece
Danio rerio
  LC50: > 5 µg/mL
Rattus norvegicus; oral, mortality
  LD50: > 5000 mg/kg-day
Rattus norvegicus; [2]
  NOEL: ≥ 1000 mg/kg-day
Typhlodromus pyri
  LR50: 0.28 g/ha

## ClC=CCCl [1,3-Dichloropropene]
Anas platyrhynchos; reproductive
  NOEC: 36 mg/kg-day
Anas platyrhynchos; [3]
  LD50: 1080 mg/kg-day
Bibionidae; duration: 28 days, other
  NOEC: 0.369 mg/L
Colinus virginianus
  LD50: 92 mg/kg-day
Cyprinodon variegatus; mortality
  LC50: 0.87 µg/mL (≈ 7.84 µM)
Pimephales promelas; chronic/long-term, duration: 33 days, growth
  NOEC: 0.0069 mg/L
Rattus norvegicus; oral, mortality
  LD50: 130 mg/kg-day
Rattus norvegicus; chronic, duration: 2 years, oral, diet, histopathology: neoplastic
  NOAEL: 2.5 mg/kg-day

## CCCCCCCCCCO [1-Decanol]
Anas platyrhynchos; acute, oral, unspecified, mortality
  LD50: > 4640 mg/kg-day
Anas platyrhynchos; [3]
  LC50: > 2550 mg/kg-day
Apis mellifera; dermal
  LD50: > 13.8 µg/piece
Daphnia magna
  NOEC: 0.51 mg/L
Oncorhynchus mykiss; duration: 28 days, growth
  NOEC: 0.0064 mg/L
Pimephales promelas; [4]
  LC50: 2.4 µg/mL (≈ 15.2 µM)
Rattus norvegicus; oral, mortality
  LD50: 4720 mg/kg-day
Rattus norvegicus; [2]
  NOAEL: 1000 mg/kg-day
Tagia sp.
  LC50: > 628 mg/kg

## [Al+3].[Al+3].[O-2].[O-2].[O-2].[O-2].[O-2].[Si+4] [Aluminum oxide silicate  (Al2O(SiO4))]
Evynnis japonica
  LC50: 494 µg/mL
Metacarcinus magister
  LC50: 32000 µg/mL
Oncorhynchus mykiss; duration: 30 days, mortality
  NOEC: 100 mg/L
Rattus norvegicus; oral, mortality
  LD50: > 5000 mg/kg

## CC1=C(/C=C/C(C)=C/C=C/C(C)=C/C=C/C=C(C)/C=C/C=C(C)/C=C/C2=C(C)C(=O)CCC2(C)C)C(C)(C)CCC1=O [Canthaxanthin]
Homo sapiens; ophthalmoscopic examination
  NOAEL: 0.25 mg/kg-day

## [O-][Cl+2]([O-])[O-] [Chlorate]
Homo sapiens; duration: 12 weeks, oral, drinking water, M, no effects
  NOEL: 0.036 mg/kg-day

## Cc1cc(C2CC2)nc(Nc2ccccc2)n1 [Cyprodinil]
Bibionidae; duration: 27 days
  NOEC: 80 mg/kg
Bibionidae; duration: 28 days
  NOEC: 0.24 mg/L
Daphnia magna
  NOEC: 0.0018 mg/L
Lepomis macrochirus; mortality
  LC50: 2.17 µg/mL (≈ 9.63 µM)
Oncorhynchus mykiss; [4]
  LC50: 1.35 µg/mL (≈ 5.99 µM)
Oncorhynchus mykiss; duration: 21 days
  NOEC: 0.083 mg/L

## CC(=O)O.CCCCCCCCCCCCN=C(N)N [Dodecylguanidine acetate]
[1]
  NOAEL: 45 mg/kg-day
Anas platyrhynchos; acute, oral, unspecified
  LD50: 857 mg/kg-day
Bird; reproductive
  NOEL: 17 mg/kg-day
Bird; short-term, oral, feed
  LC50: 208 mg/kg-day
Rattus norvegicus
  LD50: 851 mg/kg-day

## ClC1=C(Cl)[C@]2(Cl)[C@@H]3[C@H]4C[C@H]([C@@H]5O[C@H]45)[C@@H]3[C@@]1(Cl)C2(Cl)Cl [Endrin]
Anas platyrhynchos; subchronic, duration: 12 weeks, oral, feed, M/F, mortality
  NOAEL: 0.5 mg/kg
Bovidae
  LEL: 5 mg/kg-day
Canidae; chronic, duration: 18 months, diet, organ weight
  NOAEL: 1 mg/kg-day
Coturnix coturnix
  LOAEL: 0.5 mg/kg-day
Gallus gallus; subchronic, duration: 50 days, mortality
  NOAEL: 1 mg/kg-day
Oncorhynchus mykiss; duration: 163 days, clinical chemistry
  LOAEL: 4.3 µg/kg-day
Ovis sp.; chronic, duration: 112 days, diet, no effects
  LEL: 5 mg/kg-day

## CCOP(=O)(NC(C)C)Oc1ccc(SC)c(C)c1 (configuration not stated) [Fenamiphos]
Bibionidae; duration: 28 days
  NOEC: 0.00131 mg/L
Canidae; acute, neurology
  NOAEL: 0.25 mg/kg-day
Canidae; chronic, duration: 1 years, neurology
  NOAEL: 0.083 mg/kg-day
Cyprinodon variegatus
  LC50: 0.017 µg/mL (≈ 0.056 µM)
Daphnia magna
  NOEC: 0.00012 mg/L
Lepomis macrochirus
  LC50: 0.0093 µg/mL (≈ 0.0307 µM)
Oncorhynchus mykiss; duration: 91 days
  NOEC: 0.0038 mg/L
Rattus norvegicus; mortality
  LD50: 6 mg/kg-day

## Cc1cc2c(C(C)C)c(O)c(O)c(C=O)c2c(O)c1-c1c(C)cc2c(C(C)C)c(O)c(O)c(C=O)c2c1O [Gossypol]
Canidae; repeat dose other, diet, mortality
  LEL: 5 mg/kg-day
Capra sp.
  LEL: ≥ 15 mg/kg-day
Gallus gallus; short-term, duration: 20 days, histopathology: nonneoplastic
  NOAEL: 20 mg/kg-day
Oncorhynchus mykiss; duration: 10 months, F, development
  LOAEL: 140 mg/kg
Oryctolagus sp.
  LEL: 4 mg/kg-day
Ovis sp.; subchronic, duration: 30 days, capsule, gross pathology
  LOAEL: 3 mg/kg-day
Sus scrofa
  NOAEL: 3 mg/kg-day
